Earlier results in patent US20030229111A1, “Naltrexone hydrochloride compositions” (priority 2002, published 2003).

How the values were obtained:
[1] = in vivo, po

Question: Which results are given for `O=C1CC[C@@]2(O)[C@H]3Cc4ccc(O)c5c4[C@@]2(CCN3CC2CC2)[C@H]1O5` [naltrexone, Naltrexone]?
Answer: protein binding: approximately 21%; time within which rapidly absorbed [1]: ≤ 1 h
